20 compounds from patent US9777001B2 (priority 2014, dated 2017) can be followed below.

The assay addresses human plasma kallikrein (Homo sapiens, UniProt P03952). Nature of the assay: biochemical. The note with it: purified human plasma kallikrein, substrate S-2302, sodium phosphate buffer pH 7.5.

SMILES strings stand for the structures. Counter-ions that a name gives are not always drawn.

human plasma kallikrein, sequence (P03952 391-638 limits assumed): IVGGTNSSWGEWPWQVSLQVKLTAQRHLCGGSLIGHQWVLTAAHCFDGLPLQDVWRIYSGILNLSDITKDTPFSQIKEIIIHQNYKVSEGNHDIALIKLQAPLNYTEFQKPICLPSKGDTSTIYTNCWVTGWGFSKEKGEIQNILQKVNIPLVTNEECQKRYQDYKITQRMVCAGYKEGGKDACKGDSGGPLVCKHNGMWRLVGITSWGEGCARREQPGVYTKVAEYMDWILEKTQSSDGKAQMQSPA
human plasma kallikrein, sequence (P03952 20-390 partner limits assumed): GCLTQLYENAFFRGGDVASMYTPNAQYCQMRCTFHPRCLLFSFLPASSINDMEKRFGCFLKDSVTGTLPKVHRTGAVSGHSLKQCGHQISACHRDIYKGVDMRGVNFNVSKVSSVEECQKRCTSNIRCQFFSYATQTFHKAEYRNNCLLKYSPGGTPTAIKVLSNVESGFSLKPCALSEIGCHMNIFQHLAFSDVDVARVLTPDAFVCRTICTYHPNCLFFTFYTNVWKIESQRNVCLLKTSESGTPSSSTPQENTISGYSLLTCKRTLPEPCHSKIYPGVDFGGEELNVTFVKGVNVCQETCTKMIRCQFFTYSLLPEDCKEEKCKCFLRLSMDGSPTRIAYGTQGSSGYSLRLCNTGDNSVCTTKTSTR

`C[C@@H]1CCC[C@H](n2cnc(-c3cc(Cl)ccc3-n3cc(C#N)nn3)cc2=O)c2cc(ccn2)-c2ccc(C#N)cc2NC1=O` [Example 38, (10R,14S)-14-{4-[5-Chloro-2-(4-cyano-1H-1,2,3-triazol-1-yl)phenyl]-6-oxo-1,6-dihydropyrimidin-1-yl}-10-methyl-9-oxo-8,16-diazatricyclo[13.3.1.0^2,7]nonadeca-1(19),2(7),3,5,15,17-hexaene-5-carbonitrile trifluoroacetate] returned an inhibition constant (Ki) of 0.019 µM.
As for `C[C@@H]1CC(O)C[C@H](n2cnc(-c3c(-n4cc(Cl)nn4)ccc(Cl)c3F)cc2=O)c2cc(ccn2)-c2cc(F)ccc2NC1=O` (stereo partly drawn) [Example 40, (10R,14S)-14-{4-[3-chloro-6-(4-chloro-1H-1,2,3-triazol-1-yl)-2-fluorophenyl]-6-oxo-1,6-dihydropyrimidin-1-yl}-4-fluoro-12-hydroxy-10-methyl-8,16-diazatricyclo[13.3.1.0^2,7]nonadeca-1(19),2(7),3,5,15,17-hexaen-9-one trifluoroacetate], the figure is 0.013 µM.
For `COC(=O)Nc1ccc2c(c1)NC(=O)[C@H](C)CCC[C@H](n1cnc(-c3cccc(Cl)c3F)cc1=O)c1cc-2ccn1` [Example 45, methyl N-[(10R,14S)-14-[4-(3-chloro-2-fluorophenyl)-6-oxo-1,6-dihydropyrimidin-1-yl]-10-methyl-9-oxo-8,16-diazatricyclo[13.3.1.0^2,7]nonadeca-1(18),2,4,6,15(19),16-hexaen-5-yl]carbamate trifluoroacetate], the inhibitory constant (Ki) was 0.078 µM.
As for `COC(=O)Nc1ccc2c(c1)NC(=O)[C@H](C)CCC[C@H](n1cnc(-c3cc(Cl)ccc3F)cc1=O)c1cc-2ccn1` [Example 49, methyl N-[(10R,14S)-14-[4-(5-chloro-2-fluorophenyl)-6-oxo-1,6-dihydropyrimidin-1-yl]-10-methyl-9-oxo-8,16-diazatricyclo[13.3.1.0^2,7]nonadeca-1(19),2(7),3,5,15,17-hexaen-5-yl]carbamate trifluoroacetate], the figure is 0.013 µM; as for `C[C@@H]1CCC[C@H](n2cnc(-c3c(-n4ccnn4)ccc(Cl)c3F)cc2=O)c2cc(ccn2)-c2c(ccc(F)c2F)NC1=O` [Example 54, (10R,14S)-14-{4-[3-chloro-2-fluoro-6-(1H-1,2,3-triazol-1-yl)phenyl]-6-oxo-1,6-dihydropyrimidin-1-yl}-3,4-difluoro-10-methyl-8,16-diazatricyclo[13.3.1.0^2,7]nonadeca-1(19),2(7),3,5,15,17-hexaen-9-one trifluoroacetate], 0.041 µM.
As for `C[C@@H]1CCC[C@H](n2cnc(-c3c(-n4cc(Cl)nn4)ccc(Cl)c3F)cc2=O)c2cc(ccn2)-c2ccccc2NC1=O` [Example 58, (10R,14S)-14-{4-[3-chloro-6-(4-chloro-1H-1,2,3-triazol-1-yl)-2-fluorophenyl]-6-oxo-1,6-dihydropyrimidin-1-yl}-10-methyl-8,16-diazatricyclo [13.3.1.0^2,7]nonadeca-1(19),2,4,6,15,17-hexaen-9-one], the figure is 0.005 µM; as for `C[C@@H]1CCC[C@H](n2cnc(-c3cc(Cl)ccc3-c3cnn(C)c3)cc2=O)c2cc(ccn2)-c2cc(F)ccc2NC1=O` [Example 66, (10R,14S)-14-{4-[5-chloro-2-(1-methyl-1H-pyrazol-4-yl)phenyl]-6-oxo-1,6-dihydropyrimidin-1-yl}-4-fluoro-10-methyl-8,16-diazatricyclo[13.3.1.0^2,7]nonadeca-1(19),2(7),3,5,15,17-hexaen-9-one], 0.9 µM.
As for `C[C@@H]1CCC[C@H](n2cnc(-c3cc(Cl)ccc3-n3cc(Cl)nn3)cc2=O)c2cc(ccn2)-c2ccc(C(F)F)cc2NC1=O` [Example 74, (10R,14S)-14-{4-[5-chloro-2-(4-chloro-1H-1,2,3-triazol-1-yl)phenyl]-6-oxo-1,6-dihydropyrimidin-1-yl}-5-(difluoromethyl)-10-methyl-8,16-diazatricyclo [13.3.1.0^2,7]nonadeca-1(19),2(7),3,5,15,17-hexaen-9-one], the figure is 0.04 µM; as for `C[C@@H]1CCC[C@H](n2cnc(-c3cc(Cl)ccc3-n3cc(Cl)nn3)cc2=O)c2cc(ccn2)-c2ccc(Cl)cc2NC1=O` [Example 75, (10R,14S)-5-chloro-14-{4-[5-chloro-2-(4-chloro-1H-1,2,3-triazol-1-yl)phenyl]-6-oxo-1,6-dihydropyrimidin-1-yl}-10-methyl-8,16-diazatricyclo [13.3.1.0^2,7]nonadeca-1(19),2(7),3,5,15,17-hexaen-9-one], 0.1 µM; as for `C[C@@H]1CCC[C@H](n2cnc(-c3cc(Cl)ccc3-n3cc(Cl)nn3)cc2=O)c2cc(ccn2)-c2ccc(C#N)cc2NC1=O` [Example 89, (10R,14S)-14-{4-[5-chloro-2-(4-chloro-1H-1,2,3-triazol-1-yl)phenyl]-6-oxo-1,6-dihydropyrimidin-1-yl}-10-methyl-9-oxo-8,16-diazatricyclo[13.3.1.0^2,7]nonadeca-1(19),2(7),3,5,15,17-hexaene-5-carbonitrile trifluoroacetate], 0.008 µM.
`C#Cc1ccc2c(c1)NC(=O)[C@H](C)CCC[C@H](n1cnc(-c3cc(Cl)ccc3-n3cc(Cl)nn3)cc1=O)c1cc-2ccn1` [Example 91, (10R,14S)-14-{4-[5-chloro-2-(4-chloro-1H-1,2,3-triazol-1-yl)phenyl]-6-oxo-1,6-dihydropyrimidin-1-yl}-5-ethynyl-10-methyl-8,16-diazatricyclo[13.3.1.0^2,7]nonadeca-1(19),2(7),3,5,15,17-hexaen-9-one] gave a Ki of 0.66 µM.
As for `C[C@@H]1CCC[C@H](n2cnc(-c3cc(Cl)ccc3-n3cc(C(F)F)nn3)cc2=O)c2cc(ccn2)-c2ccccc2NC1=O` [Example 94, (10R,14S)-14-(4-{5-chloro-2-[4-(difluoromethyl)-1H-1,2,3-triazol-1-yl]phenyl}-6-oxo-1,6-dihydropyrimidin-1-yl)-10-methyl-8,16-diazatricyclo[13.3.1.0^2,7]nonadeca-1(19),2(7),3,5,15,17-hexaen-9-one], the figure is 0.03 µM.
As for `C[C@@H]1CCC[C@H](n2cnc(-c3c(-n4cc(Cl)nn4)ccc(Cl)c3F)cc2=O)c2cc(ccn2)-c2cc(C#N)ccc2NC1=O` [Example 98, (10R,14S)-14-{4-[3-Chloro-6-(4-chloro-1H-1,2,3-triazol-1-yl)-2-fluorophenyl]-6-oxo-1,6-dihydropyrimidin-1-yl}-10-methyl-9-oxo-8,16-diazatricyclo[13.3.1.0^2,7]nonadeca-1(19),2(7),3,5,15,17-hexaene-4-carbonitrile trifluoroacetate], the figure is 0.04 µM; as for `C[C@@H]1CCC[C@H](n2cnc(-c3cc(Cl)ccc3-n3cc(Cl)nn3)cc2=O)c2cc(ccn2)-c2ccc(OCC(=O)O)cc2NC1=O` [Example 99, 2-{[(10R,14S)-14-{4-[5-chloro-2-(4-chloro-1H-1,2,3-triazol-1-yl)phenyl]-6-oxo-1,6-dihydropyrimidin-1-yl}-10-methyl-9-oxo-8,16-diazatricyclo[13.3.1.0^2,7]nonadeca-1(19),2(7),3,5,15,17-hexaen-5-yl]oxy}acetic acid], 4.9 µM; as for `C[C@@H]1CCC[C@H](n2cnc(-c3cc(Cl)ccc3-n3cc(C(F)(F)F)nn3)cc2=O)c2cncc(c2)-c2cc(F)ccc2NC1=O` [Example 103, (10R,14S)-14-(4-{5-chloro-2-[4-(trifluoromethyl)-1H-1,2,3-triazol-1-yl]phenyl}-6-oxo-1,6-dihydropyrimidin-1-yl)-4-fluoro-10-methyl-8,17-diazatricyclo[13.3.1.0^2,7]nonadeca-1(19),2(7),3,5,15,17-hexaen-9-one], 0.032 µM.
As for `C[C@@H]1CCC[C@H](n2cnc(-c3cc(Cl)ccc3-n3cc(Cl)nn3)cc2=O)c2cc(ccn2)-c2c(Cl)cccc2NC1=O` [Example 104, (10R,14S)-3-chloro-14-{4-[5-chloro-2-(4-chloro-1H-1,2,3-triazol-1-yl)phenyl]-6-oxo-1,6-dihydropyrimidin-1-yl}-10-methyl-8,16-diazatricyclo [13.3.1.0^2,7]nonadeca-1(19),2(7),3,5,15,17-hexaen-9-one], the figure is 0.19 µM; as for `C[C@@H]1CCC[C@H](n2cnc(-c3cc(Cl)ccc3-n3cc(C(F)(F)F)nn3)cc2=O)c2ccnc(c2)-c2ccc(C#N)cc2NC1=O` [Example 113, (10R,14S)-14-(4-{5-chloro-2-[4-(trifluoromethyl)-1H-1,2,3-triazol-1-yl]phenyl}-6-oxo-1,6-dihydropyrimidin-1-yl)-10-methyl-9-oxo-8,18-diazatricyclo [13.3.1.0^2,7]nonadeca-1(19),2(7),3,5,15,17-hexaene-5-carbonitrile], 0.015 µM; as for `C[C@@H]1CCC[C@H](n2cnc(-c3cc(Cl)ccc3-n3cc(Cl)nn3)cc2=O)c2cc(ccn2)-c2cc(C#N)ccc2NC1=O` [Example 114, (10R,14S)-14-{4-[5-chloro-2-(4-chloro-1H-1,2,3-triazol-1-yl)phenyl]-6-oxo-1,6-dihydropyrimidin-1-yl}-10-methyl-9-oxo-8,16-diazatricyclo[13.3.1.0^2,7]nonadeca-1(19),2(7),3,5,15,17-hexaene-4-carbonitrile trifluoroacetate], 0.026 µM.
`COC(=O)Nc1ccc2c(c1)NC(=O)[C@H](C)CCC[C@H](n1cnc(-c3cc(Cl)cc4cnn(C)c34)cc1=O)c1cc-2ccn1` [Example 120, N-[(10R,14S)-14-[4-(5-chloro-1-methyl-1H-indazol-7-yl)-6-oxo-1,6-1-yl]-10-methyl-9-oxo-8,16-diazatricyclo[13.3.1.0^2,7]nonadeca-1(19),2(7),3,5,15,17-hexaen-5-yl]carbamate] registered a Ki of 0.18 µM.
As for `C[C@@H]1CCC[C@H](n2cnc(-c3cc(Cl)ccc3-c3cnn(C(F)F)c3)cc2=O)c2cc(ccn2)-c2cc(F)ccc2NC1=O` [Example 124, (10R,14S)-14-(4-{5-chloro-2-[1-(difluoromethyl)-1H-pyrazol-4-yl]phenyl}-6-oxo-1,6-dihydropyrimidin-1-yl)-4-fluoro-10-methyl-8,16-diazatricyclo [13.3.1.0^2,7]nonadeca-1(19),2(7),3,5,15,17-hexaen-9-one trifluoroacetate], the figure is 0.78 µM.

A word on the Ki: it is the dissociation constant of the complex between target and ligand, obtained from inhibition or displacement. A high value points to weaker binding.
